Data published in ChEMBL document CHEMBL4007510, “N6-Substituted 5'-N-Methylcarbamoyl-4'-selenoadenosines as Potent and Selective A3 Adenosine Receptor Agonists with Unusual Sugar Puckering and Nucleobase Orientation” (J Med Chem, 2017).
The source made the active and inactive calls. The rule behind the calls is not given here.

Legend:
Adenosine receptor A3 [1] = biological target: T1, Adenosine receptor A3 (Homo sapiens, UniProt P0DMS8); experiment: Displacement of [125I]I-AB-MECA from human adenosine A3 receptor expressed in CHO cells after 60 mins by gamma counting analysis; type: cell-based
T1 sequence (P0DMS8 whole entry): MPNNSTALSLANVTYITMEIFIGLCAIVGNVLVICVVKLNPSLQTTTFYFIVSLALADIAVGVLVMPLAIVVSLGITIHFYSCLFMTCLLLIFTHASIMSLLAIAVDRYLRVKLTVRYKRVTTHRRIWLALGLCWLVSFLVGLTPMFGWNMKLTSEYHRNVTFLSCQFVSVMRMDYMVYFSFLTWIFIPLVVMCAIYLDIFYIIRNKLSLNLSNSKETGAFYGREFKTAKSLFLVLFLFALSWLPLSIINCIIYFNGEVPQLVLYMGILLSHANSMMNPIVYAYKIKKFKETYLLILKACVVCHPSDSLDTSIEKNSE

[2] = biological target: T2, Adenosine receptor A3 (Homo sapiens) (UniProt P0DMS8); experiment: Agonist activity at human adenosine A3 receptor expressed in CHO cells assessed as decrease in forskolin induced cAMP formation preincubated for 10 mins followed by forskolin challenge measured after 15 mins by AlphaScreen assay relative to adenosine-5'-N- ethyluronamide; type: functional, cell-based; design: concentration or dose not given beside the values
T2 sequence (whole entry): T1 sequence (P0DMS8 whole entry)

Adenosine receptor A2a [3] = biological target: T3, Adenosine receptor A2a (Homo sapiens, UniProt P29274); experiment: Displacement of [3H]CGS21680 from human adenosine A2A receptor expressed in HEK293 cells after 60 mins by liquid scintillation analyzer; type: cell-based
Adenosine receptor A1 = biological target: T4, Adenosine receptor A1 (Homo sapiens, UniProt P30542); experiment: Displacement of […] from human adenosine A1 receptor expressed in CHO cells after 60 mins by liquid scintillation analyzer; type: cell-based
T4 sequence (P30542 whole entry): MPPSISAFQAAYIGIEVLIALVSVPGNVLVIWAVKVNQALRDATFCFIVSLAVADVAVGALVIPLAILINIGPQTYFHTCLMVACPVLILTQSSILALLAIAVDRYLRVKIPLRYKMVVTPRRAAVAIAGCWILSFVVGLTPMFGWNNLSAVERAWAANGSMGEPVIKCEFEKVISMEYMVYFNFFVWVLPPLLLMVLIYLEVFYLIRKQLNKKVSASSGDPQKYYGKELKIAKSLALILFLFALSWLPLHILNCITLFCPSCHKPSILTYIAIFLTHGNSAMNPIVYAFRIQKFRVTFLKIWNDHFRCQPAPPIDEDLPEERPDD

[4] = biological target: T5, Adenosine receptor A1 (Homo sapiens) (UniProt P30542); experiment: Displacement of […] from human adenosine A1 receptor expressed in CHO cells at 10 uM after 60 mins by liquid scintillation analyzer relative to control; type: cell-based
T5 sequence (whole entry): T4 sequence (P30542 whole entry)

Adenosine receptor A2a [5] = biological target: T3, Adenosine receptor A2a; experiment: Displacement of [3H]CGS21680 from human adenosine A2 receptor expressed in HEK293 cells at 10 uM after 60 mins by liquid scintillation analyzer relative to control; type: cell-based
Microglia = experiment: Antimigratory activity in Sprague-Dawley rat microglial cells assessed as inhibition of MCP-1 mediated cell migration at 100 nM after 20 mins by inverted confocal microscopy; type: functional, cell-based
[6] = Cytotoxicity against Sprague-Dawley rat microglial cells assessed as effect on cell viability up to 50 uM after 24 hrs by presto blue assay; type: cell-based; settings: microglia
[7] = Cytotoxicity against human MRC9 up to 20 uM; type: cell-based
Adenosine receptor A3 [8] = biological target: T1, Adenosine receptor A3; experiment: Agonist activity at human adenosine A3 receptor expressed in CHO cells assessed as decrease in forskolin induced cAMP formation preincubated for 10 mins followed by forskolin challenge measured after 15 mins by AlphaScreen assay; type: functional, cell-based

T3 sequence (P29274 whole entry): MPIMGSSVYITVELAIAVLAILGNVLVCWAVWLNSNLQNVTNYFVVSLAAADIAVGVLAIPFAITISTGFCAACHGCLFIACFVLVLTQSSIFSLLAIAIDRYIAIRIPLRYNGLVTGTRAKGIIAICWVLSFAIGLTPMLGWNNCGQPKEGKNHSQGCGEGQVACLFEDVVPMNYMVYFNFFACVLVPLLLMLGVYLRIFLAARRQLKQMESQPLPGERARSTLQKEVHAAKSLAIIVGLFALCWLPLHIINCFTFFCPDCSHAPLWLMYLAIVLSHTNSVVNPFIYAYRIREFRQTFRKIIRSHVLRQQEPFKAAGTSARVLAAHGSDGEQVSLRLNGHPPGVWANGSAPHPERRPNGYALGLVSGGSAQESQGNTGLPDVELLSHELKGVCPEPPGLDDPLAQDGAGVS

| SMILES | Ki (Adenosine receptor A3 [1]) [nM] | Activity [2] [%] | Ki (Adenosine receptor A2a [3]) [nM] | Ki (Adenosine receptor A1) [nM] | inhibition [4] [%] | inhibition (Adenosine receptor A2a [5]) [%] | inhibition (Microglia) | Activity [6] | Activity [7] | EC50 (Adenosine receptor A3 [8]) [nM] |
| --- | --- | --- | --- | --- | --- | --- | --- | --- | --- | --- |
| CNC(=O)[C@H]1[Se][C@@H](n2cnc3c(NCc4ccccc4Cl)ncnc32)[C@H](O)[C@@H]1O | 4.41 | 85 | 1160 | 1090 | – | – | – | – | – | – |
| CNC(=O)[C@H]1[Se][C@@H](n2cnc3c(NC4CCC4)ncnc32)[C@H](O)[C@@H]1O | 1.39 | 82 | 1080 | 37.5 | – | – | – | – | – | – |
| CNC(=O)[C@H]1[Se][C@@H](n2cnc3c(NCc4cccc(F)c4)nc(Cl)nc32)[C@H](O)[C@@H]1O | 3.35 | 106 | – | – | 37.3 | 42 | – | – | – | – |
| CNC(=O)[C@H]1[Se][C@@H](n2cnc3c(NCc4ccc5ccccc5c4)ncnc32)[C@H](O)[C@@H]1O | 1.76 | 109 | 195 | 440 | – | – | – | – | – | – |
| CNC(=O)[C@H]1[Se][C@@H](n2cnc3c(NCc4cccc(Br)c4)nc(Cl)nc32)[C@H](O)[C@@H]1O | 1.99 | 106 | 1230 | 156 | – | – | – | – | – | – |
| CNC(=O)[C@H]1S[C@@H](n2cnc3c(NCc4cccc(I)c4)nc(Cl)nc32)[C@H](O)[C@@H]1O | – | – | – | – | – | – | Active | Non-Toxic | – | – |
| CNC(=O)[C@H]1[Se][C@@H](n2cnc3c(NCc4cccc(I)c4)ncnc32)[C@H](O)[C@@H]1O | 0.57 | 91 | 1080 | 480 | – | – | Active | Non-Toxic | Non-Toxic | 2.7 |
| CNC(=O)[C@H]1[Se][C@@H](n2cnc3c(NCc4cccc(Br)c4)ncnc32)[C@H](O)[C@@H]1O | 0.9 | 91 | 560 | 220 | – | – | – | – | Non-Toxic | – |
| CNC(=O)[C@H]1[Se][C@@H](n2cnc3c(NC4CCC4)nc(Cl)nc32)[C@H](O)[C@@H]1O | 1 | 86.7 | 899 | 61.7 | – | – | – | – | – | – |
| CNC(=O)[C@H]1[Se][C@@H](n2cnc3c(NCc4cccc(Cl)c4)ncnc32)[C@H](O)[C@@H]1O | 3.45 | 80 | 555 | 570 | – | – | – | – | Non-Toxic | – |
| CNC(=O)[C@H]1[Se][C@@H](n2cnc3c(NC)ncnc32)[C@H](O)[C@@H]1O | 1.49 | 108 | – | 2060 | – | 18 | – | – | – | – |
| CNC(=O)[C@H]1[Se][C@@H](n2cnc3c(NCc4cccc(F)c4)ncnc32)[C@H](O)[C@@H]1O | 2.3 | 74 | 1350 | 3310 | – | – | – | – | Non-Toxic | – |
| CNC(=O)[C@H]1[Se][C@@H](n2cnc3c(NC4CC4)nc(Cl)nc32)[C@H](O)[C@@H]1O | 1.9 | 83.6 | – | 186 | – | 30.3 | – | – | – | – |
| CNC(=O)[C@H]1[Se][C@@H](n2cnc3ncnc(NCc4cccc(I)c4)c32)[C@H](O)[C@@H]1O | 4180 | 0.2 | – | – | 26 | 13 | – | – | – | – |
| CNC(=O)[C@H]1[Se][C@@H](n2cnc3c(NCc4ccccc4OC)ncnc32)[C@H](O)[C@@H]1O | 3.75 | 97 | 1260 | 1880 | – | – | – | – | – | – |
| CNC(=O)[C@H]1[Se][C@@H](n2cnc3c(N[C@@H]4C[C@H]4c4ccccc4)ncnc32)[C@H](O)[C@@H]1O | 3.93 | 89 | 2480 | 420 | – | – | – | – | – | – |
| CNC(=O)[C@H]1S[C@@H](n2cnc3c(NCc4cccc(I)c4)ncnc32)[C@H](O)[C@@H]1O | – | 100 | – | – | – | – | – | – | – | – |
| CNC(=O)[C@H]1[Se][C@@H](n2cnc3c(NC4CC4)ncnc32)[C@H](O)[C@@H]1O | 2.49 | 92 | – | 83.5 | – | 54 | – | – | – | – |
| CNC(=O)[C@H]1[Se][C@@H](n2cnc3c(NCc4cccc(Cl)c4)nc(Cl)nc32)[C@H](O)[C@@H]1O | 1.96 | 99.7 | 238 | 232 | – | – | – | – | – | – |
| CNC(=O)[C@H]1[Se][C@@H](n2cnc3nc(Cl)nc(NCc4cccc(I)c4)c32)[C@H](O)[C@@H]1O | 7360 | 14 | – | – | 7 | 23 | – | – | – | – |
| CNC(=O)[C@H]1[Se][C@@H](n2cnc3c(NCc4cccc(I)c4)nc(Cl)nc32)[C@H](O)[C@@H]1O | 4.2 | 94.1 | 1200 | 311 | – | – | – | – | – | – |
| CNC(=O)[C@H]1[Se][C@@H](n2cnc3c(NC4CCCC4)nc(Cl)nc32)[C@H](O)[C@@H]1O | 3.56 | 92.5 | 1120 | 59.4 | – | – | – | – | – | – |
| CNC(=O)[C@H]1[Se][C@@H](n2cnc3c(NC4CCCC4)ncnc32)[C@H](O)[C@@H]1O | 7.07 | 77 | 1090 | 25.2 | – | – | – | – | – | – |
